Test results published in patent US7777030B2, “Compositions and methods for the treatment and prevention of disease” (Centre National de la Recherge Scientifique (CNRS), priority 2005, dated 2010).

Experiments:
[1] = tested on: primary mouse hepatocyte culture; test: toxicity on primary mouse hepatocyte culture; type: cell-based; settings: tested at different doses (6, 25-100 μg/ml)
[2] = tested on: malaria liver stage (LS) parasites; test: effect on sporozoite invasion and malaria liver stage development in hepatocytes; type: cell-based; settings: compounds added at sporozoite invasion and during liver stage development; schizonts counted in 48 hours cultures; FIG. 5

CN1CNC(=O)NC(Cc2ccccc2)C1=O (stereo not shown) [4b] was tested. Which “toxicity on primary mouse hepatocyte culture” value [1] did it give?
The value was “non toxic”.

And the “effect on liver parasites / LS development (schizont number)” value [2]?
Its value is “inhibit significantly and repeatedly”.

Which “toxicity on primary mouse hepatocyte culture” value [1] does the source give for CN1CN(Cc2ccccc2)C(=O)NC(Cc2ccccc2)C1=O (stereo not shown) [8a] here?
The value was “non toxic”.

And the “effect on liver parasites / LS development (schizont number)” value [2]?
The value was “inhibit significantly and repeatedly”.
